Experiments:
Assay in all cases: relative viability (nuclei count vs DMSO), 5 days (fraction); higher = more cells survive
ABC-1 = test system: ABC-1
How it was run: (§1)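 Relative viability was taken as the ratio of nuclei in treated wells to nuclei in vehicle wells. Lung cancer cell lines in 1536-well plates received compounds by pin tool one day after seeding, either one drug alone or a fixed anchor-drug dose plus five library-drug doses (not always all listed) in √10 steps. Nuclei were counted on 4× images after 5 days of treatment, and values are medians of duplicate plates.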

CAL-12T = test system: CAL-12T
How it was run: as §1

HCC-366 = test system: HCC-366
How it was run: as §1

HCC-78 = test system: HCC-78
How it was run: as §1

LC-2-ad = test system: LC-2-ad
How it was run: as §1

LOU-NH91 = test system: LOU-NH91
How it was run: as §1

LU99A = test system: LU99A
How it was run: as §1

NCI-H1395 = test system: NCI-H1395
How it was run: as §1

NCI-H1651 = test system: NCI-H1651
How it was run: as §1

NCI-H1755 = test system: NCI-H1755
How it was run: as §1

NCI-H1793 = test system: NCI-H1793
How it was run: as §1

NCI-H1944 = test system: NCI-H1944
How it was run: as §1

NCI-H2087 = test system: NCI-H2087
How it was run: as §1

NCI-H2170 = test system: NCI-H2170
How it was run: as §1

NCI-H2228 = test system: NCI-H2228
How it was run: as §1

NCI-H2405 = test system: NCI-H2405
How it was run: as §1

NCI-H3122 = test system: NCI-H3122
How it was run: as §1

NCI-H460 = test system: NCI-H460
How it was run: as §1

PC-3 [JPC-3] = test system: PC-3 [JPC-3]
How it was run: as §1

RERF-LC-KJ = test system: RERF-LC-KJ
How it was run: as §1

UMC-11 = test system: UMC-11
How it was run: as §1

O=c1cc(-c2cccc3c2Sc2ccccc2S3)oc(N2CCOCC2)c1 + Cc1nc(NC(=O)N2CCC[C@H]2C(N)=O)sc1-c1ccnc(C(C)(C)C(F)(F)F)c1 [Alpelisib] (partner 2 µM)
relative viability (ABC-1; first compound 0.08 µM): 1.17 | relative viability (ABC-1; first compound 0.253 µM): 1.14 | relative viability (ABC-1; first compound 0.8 µM): 1.16 | relative viability (ABC-1; first compound 2.53 µM): 0.901 | relative viability (ABC-1; first compound 8 µM): 0.953 | relative viability (CAL-12T; first compound 0.08 µM): 1.17 | relative viability (CAL-12T; first compound 0.253 µM): 1.28 | relative viability (CAL-12T; first compound 0.8 µM): 1.56 | relative viability (CAL-12T; first compound 2.53 µM): 1.1 | relative viability (CAL-12T; first compound 8 µM): 0.724 | relative viability (HCC-366; first compound 0.08 µM): 0.345 | relative viability (HCC-366; first compound 0.253 µM): 0.547 | relative viability (HCC-366; first compound 0.8 µM): 0.269 | relative viability (HCC-366; first compound 2.53 µM): 0.312 | relative viability (HCC-366; first compound 8 µM): 0.318 | relative viability (HCC-78; first compound 0.08 µM): 0.355 | relative viability (HCC-78; first compound 0.253 µM): 0.319 | relative viability (HCC-78; first compound 0.8 µM): 0.305 | relative viability (HCC-78; first compound 2.53 µM): 0.307 | relative viability (HCC-78; first compound 8 µM): 0.339 | relative viability (LC-2-ad; first compound 0.08 µM): 0.884 | relative viability (LC-2-ad; first compound 0.253 µM): 0.908 | relative viability (LC-2-ad; first compound 0.8 µM): 0.844 | relative viability (LC-2-ad; first compound 2.53 µM): 0.806 | relative viability (LC-2-ad; first compound 8 µM): 0.75 | relative viability (LOU-NH91; first compound 0.08 µM): 0.724 | relative viability (LOU-NH91; first compound 0.253 µM): 0.764 | relative viability (LOU-NH91; first compound 0.8 µM): 0.632 | relative viability (LOU-NH91; first compound 2.53 µM): 0.593 | relative viability (LOU-NH91; first compound 8 µM): 0.713 | relative viability (LU99A; first compound 0.08 µM): 0.507 | relative viability (LU99A; first compound 0.253 µM): 0.567 | relative viability (LU99A; first compound 0.8 µM): 0.747 | relative viability (LU99A; first compound 2.53 µM): 0.504 | relative viability (LU99A; first compound 8 µM): 0.575 | relative viability (NCI-H1395; first compound 0.08 µM): 1.13 | relative viability (NCI-H1395; first compound 0.253 µM): 1.13 | relative viability (NCI-H1395; first compound 0.8 µM): 1.19 | relative viability (NCI-H1395; first compound 2.53 µM): 0.907 | relative viability (NCI-H1395; first compound 8 µM): 1.05 | relative viability (NCI-H1651; first compound 0.08 µM): 1.02 | relative viability (NCI-H1651; first compound 0.253 µM): 1.02 | relative viability (NCI-H1651; first compound 0.8 µM): 1.08 | relative viability (NCI-H1651; first compound 2.53 µM): 0.963 | relative viability (NCI-H1651; first compound 8 µM): 1.21 | relative viability (NCI-H1755; first compound 0.08 µM): 0.889 | relative viability (NCI-H1755; first compound 0.253 µM): 1.22 | relative viability (NCI-H1755; first compound 0.8 µM): 0.945 | relative viability (NCI-H1755; first compound 2.53 µM): 0.925 | relative viability (NCI-H1755; first compound 8 µM): 0.964 | relative viability (NCI-H1793; first compound 0.08 µM): 0.498 | relative viability (NCI-H1793; first compound 0.253 µM): 0.782 | relative viability (NCI-H1793; first compound 0.8 µM): 0.692 | relative viability (NCI-H1793; first compound 2.53 µM): 0.55 | relative viability (NCI-H1793; first compound 8 µM): 0.689 | relative viability (NCI-H1944; first compound 0.08 µM): 0.793 | relative viability (NCI-H1944; first compound 0.253 µM): 0.939 | relative viability (NCI-H1944; first compound 0.8 µM): 0.736 | relative viability (NCI-H1944; first compound 8 µM): 0.751 | relative viability (NCI-H2087; first compound 0.08 µM): 1.22 | relative viability (NCI-H2087; first compound 0.253 µM): 1.19 | relative viability (NCI-H2087; first compound 0.8 µM): 1.09 | relative viability (NCI-H2087; first compound 2.53 µM): 1.12 | relative viability (NCI-H2087; first compound 8 µM): 1.03 | relative viability (NCI-H2170; first compound 0.08 µM): 0.791 | relative viability (NCI-H2170; first compound 0.253 µM): 0.835 | relative viability (NCI-H2170; first compound 0.8 µM): 0.933 | relative viability (NCI-H2170; first compound 2.53 µM): 0.747 | relative viability (NCI-H2170; first compound 8 µM): 0.841 | relative viability (NCI-H2228; first compound 0.08 µM): 0.75 | relative viability (NCI-H2228; first compound 0.253 µM): 0.846 | relative viability (NCI-H2228; first compound 0.8 µM): 0.828 | relative viability (NCI-H2228; first compound 2.53 µM): 0.561 | relative viability (NCI-H2228; first compound 8 µM): 0.737 | relative viability (NCI-H2405; first compound 0.08 µM): 0.749 | relative viability (NCI-H2405; first compound 0.253 µM): 0.777 | relative viability (NCI-H2405; first compound 0.8 µM): 0.792 | relative viability (NCI-H2405; first compound 2.53 µM): 0.73 | relative viability (NCI-H2405; first compound 8 µM): 0.614 | relative viability (NCI-H3122; first compound 0.08 µM): 0.731 | relative viability (NCI-H3122; first compound 0.253 µM): 0.902 | relative viability (NCI-H3122; first compound 0.8 µM): 0.796 | relative viability (NCI-H3122; first compound 2.53 µM): 0.746 | relative viability (NCI-H3122; first compound 8 µM): 0.881 | relative viability (NCI-H460; first compound 0.08 µM): 0.472 | relative viability (NCI-H460; first compound 0.253 µM): 0.682 | relative viability (NCI-H460; first compound 0.8 µM): 0.451 | relative viability (NCI-H460; first compound 2.53 µM): 0.57 | relative viability (NCI-H460; first compound 8 µM): 0.394 | relative viability (PC-3 [JPC-3]; first compound 0.08 µM): 0.994 | relative viability (PC-3 [JPC-3]; first compound 0.253 µM): 1.04 | relative viability (PC-3 [JPC-3]; first compound 0.8 µM): 1.07 | relative viability (PC-3 [JPC-3]; first compound 2.53 µM): 0.958 | relative viability (PC-3 [JPC-3]; first compound 8 µM): 1.03 | relative viability (RERF-LC-KJ; first compound 0.08 µM): 0.83 | relative viability (RERF-LC-KJ; first compound 0.253 µM): 0.917 | relative viability (RERF-LC-KJ; first compound 0.8 µM): 0.824 | relative viability (RERF-LC-KJ; first compound 2.53 µM): 0.741 | relative viability (RERF-LC-KJ; first compound 8 µM): 0.939 | relative viability (UMC-11; first compound 0.08 µM): 0.965 | relative viability (UMC-11; first compound 0.253 µM): 1.35 | relative viability (UMC-11; first compound 0.8 µM): 1.17 | relative viability (UMC-11; first compound 2.53 µM): 0.98 | relative viability (UMC-11; first compound 8 µM): 1.42
